Results as given in the NIST ThermoML archive (doi:10.1021/je060271a).

Details: Liquid, Vibrating tube method

CCCC(=O)OCC(COC(=O)CCC)(COC(=O)CCC)COC(=O)CCC [pentaerythritol tetrabutyrate]
Details	mass density [kg/m3]
343.14 K, 27001 kPa	1027.8
343.14 K, 27378 kPa	1028.1
343.14 K, 27722 kPa	1028.3
343.14 K, 28167 kPa	1028.7
343.14 K, 28200 kPa	1028.7
343.14 K, 28241 kPa	1028.7
343.14 K, 29595 kPa	1029.4
343.14 K, 29634 kPa	1029.5
343.14 K, 29666 kPa	1029.7
343.14 K, 29705 kPa	1029.5
343.14 K, 30226 kPa	1030
343.14 K, 30268 kPa	1029.9
343.14 K, 30303 kPa	1029.9
343.14 K, 30331 kPa	1030
343.14 K, 30366 kPa	1030.1
343.14 K, 30394 kPa	1030.1
343.14 K, 30429 kPa	1029.9
343.14 K, 30464 kPa	1030.1
343.14 K, 30785 kPa	1030.4
343.14 K, 30814 kPa	1030.4
343.14 K, 30849 kPa	1030.4
343.14 K, 30886 kPa	1030.3
343.14 K, 30916 kPa	1030.4
343.14 K, 32186 kPa	1031.3
343.14 K, 32224 kPa	1031.2
343.14 K, 32886 kPa	1031.6
343.14 K, 32998 kPa	1031.7
343.14 K, 33543 kPa	1032
343.14 K, 33577 kPa	1032.2
343.14 K, 33620 kPa	1032.2
343.14 K, 33664 kPa	1032.2
343.14 K, 33699 kPa	1032.2
343.14 K, 33741 kPa	1032.2
343.14 K, 33784 kPa	1032.2
343.14 K, 33820 kPa	1032.2
343.14 K, 33863 kPa	1032.3
343.14 K, 33907 kPa	1032.4
343.15 K, 454.1 kPa	1008.4
343.15 K, 473 kPa	1008.4
343.15 K, 494.2 kPa	1008.5
343.15 K, 517.1 kPa	1008.3
343.15 K, 5946.5 kPa	1012.7
343.15 K, 6013.6 kPa	1012.8
343.15 K, 6051.1 kPa	1012.8
343.15 K, 6081.9 kPa	1012.8
343.15 K, 7040 kPa	1013.6
343.15 K, 7078.5 kPa	1013.6
343.15 K, 7108.1 kPa	1013.7
343.15 K, 7140.9 kPa	1013.7
343.15 K, 8048.2 kPa	1014.3
343.15 K, 8412.3 kPa	1014.7
343.15 K, 8447.3 kPa	1014.8
343.15 K, 8482.2 kPa	1014.7
343.15 K, 8511.5 kPa	1014.7
343.15 K, 8547 kPa	1014.6
343.15 K, 8583.2 kPa	1014.8
343.15 K, 8618.9 kPa	1014.8
343.15 K, 8655.1 kPa	1014.9
343.15 K, 8686 kPa	1014.8
343.15 K, 8982.4 kPa	1015
343.15 K, 9021.7 kPa	1015.1
343.15 K, 9062.3 kPa	1015.2
343.15 K, 9096.7 kPa	1015.2
343.15 K, 9137.8 kPa	1015.1
343.15 K, 9179.2 kPa	1015.3
343.15 K, 9602.2 kPa	1015.6
343.15 K, 9638.9 kPa	1015.4
343.15 K, 9676.1 kPa	1015.7
343.15 K, 9713.7 kPa	1015.6
343.15 K, 9822.7 kPa	1015.8
343.15 K, 9861.5 kPa	1015.8
343.15 K, 9900.4 kPa	1015.9
343.15 K, 9939.7 kPa	1015.8
343.15 K, 9973.1 kPa	1015.9
343.15 K, 10013 kPa	1016
343.15 K, 10053 kPa	1015.8
343.15 K, 10095 kPa	1015.9
343.15 K, 10129 kPa	1015.9
343.15 K, 10171 kPa	1016
343.15 K, 10545 kPa	1016.2
343.15 K, 10590 kPa	1016.2
343.15 K, 10635 kPa	1016.3
343.15 K, 10674 kPa	1016.5
343.15 K, 10720 kPa	1016.3
343.15 K, 10767 kPa	1016.4
343.15 K, 10943 kPa	1016.5
343.15 K, 10980 kPa	1016.7
343.15 K, 11011 kPa	1016.6
343.15 K, 11049 kPa	1016.6
343.15 K, 11087 kPa	1016.7
343.15 K, 11125 kPa	1016.7
343.15 K, 11163 kPa	1016.7
343.15 K, 11196 kPa	1016.8
343.15 K, 11235 kPa	1016.8
343.15 K, 11314 kPa	1016.8
343.15 K, 11354 kPa	1016.8
343.15 K, 11388 kPa	1017
343.15 K, 11428 kPa	1016.8
343.15 K, 11468 kPa	1017
343.15 K, 11510 kPa	1017
343.15 K, 11544 kPa	1017
343.15 K, 11586 kPa	1017
343.15 K, 11628 kPa	1017.2
343.15 K, 11670 kPa	1017.1
343.15 K, 11714 kPa	1017.1
343.15 K, 11749 kPa	1017.1
343.15 K, 11792 kPa	1017.1
343.15 K, 11837 kPa	1017.3
343.15 K, 12365 kPa	1017.5
343.15 K, 12414 kPa	1017.6
343.15 K, 12458 kPa	1017.7
343.15 K, 12498 kPa	1017.7
343.15 K, 12547 kPa	1017.7
343.15 K, 12597 kPa	1017.8
343.15 K, 12647 kPa	1017.8
343.15 K, 12689 kPa	1017.9
343.15 K, 12739 kPa	1017.8
343.15 K, 12791 kPa	1018
343.15 K, 12843 kPa	1017.9
343.15 K, 12895 kPa	1018
343.15 K, 12939 kPa	1018
343.15 K, 12991 kPa	1018.1
343.15 K, 13044 kPa	1018
343.15 K, 13098 kPa	1018.2
343.15 K, 13151 kPa	1018.2
343.15 K, 13198 kPa	1018.2
343.15 K, 13252 kPa	1018.1
343.15 K, 13307 kPa	1018.2
343.15 K, 13364 kPa	1018.2
343.15 K, 13420 kPa	1018.4
343.15 K, 13468 kPa	1018.5
343.15 K, 13526 kPa	1018.4
343.15 K, 13584 kPa	1018.5
343.15 K, 13644 kPa	1018.5
343.15 K, 13698 kPa	1018.7
343.15 K, 13772 kPa	1018.6
343.15 K, 13822 kPa	1018.7
343.15 K, 13864 kPa	1018.6
343.15 K, 13901 kPa	1018.7
343.15 K, 13931 kPa	1018.8
343.15 K, 13968 kPa	1018.7
343.15 K, 14005 kPa	1018.7
343.15 K, 14043 kPa	1018.9
343.15 K, 14079 kPa	1018.8
343.15 K, 14110 kPa	1018.9
343.15 K, 14147 kPa	1018.9
